Assay results as given in patent US20050107289A1, “Anti-microbial peptides and compositions” (priority 2001, published 2005).
Counter-ions that a name gives are not always drawn. Like-named read-outs stand apart in the source and are kept apart here. Non-standard residues stand in square brackets, D forms with d. Residues, ends and D or L forms follow the SMILES beside them. NMeL = CN[C@@H](CC(C)C)C(=O)O

Assays:
[1] = tested on: S. aureus (MRSA) ATCC 33591; type: cell-based, Staphylococcus aureus; settings: for MRSA MIC / S. aureus (MRSA) MIC: ATCC 33591; for MRSA (in vitro activity): Table 9
Procedure, shortened: (§1)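 Broth microdilution (macrodilution in some cases) per NCCLS M7-A4; peptides 2-fold serially diluted in 5% DMSO/9% sucrose, ~400-2 μg/ml before dilution into broth; inoculum ~2.5×10^5 cfu/ml from overnight culture diluted 4000×.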

murine red blood cells = assay: Red blood cell hemolysis; type: cell-based, mouse; parameters: RBC Hemolysis (HD50): unit not given here
Procedure, shortened: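 Hemolysis read as A560 of supernatant, scaled between saline (0%) and 1% Triton X-100 (100%) controls; peptides were serially diluted onto 5% murine red cells in saline plus 10% FBS and incubated 30 min at 37° C.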

[2] = tested on: vancomycin-resistant Enterococus faecalis (VRE)(ATCC 51575); type: cell-based, Enterococcus faecalis; parameters: key to VRE (in vitro activity): peptide concentration in μg/ml (broth dilution assay); settings: for VRE MIC: ATCC 51575; for VRE (in vitro activity): Table 9
Procedure, shortened: as §1

[3] = tested on: Bacillus cereus ATCC 11778; type: cell-based
Procedure: (§2) The antimicrobial activity of the peptides was determined using a broth dilution assay essentially as descried in the guidelines of the National Committee for […] (NCCLS) [National Committee for Clinical Laboratory Standards. Methods for dilution antimicrobial susceptibility tests for bacteria that grow aerobically. Fourth edition. Approved Standard (1997). Document M7-A4. […] The microdilution method has the advantages of requiring less amount of peptide for each assay and the possibility of multiple simultaneous inoculations and was used in most studies. Several of the strains of bacteria tested are further described in Table 3.
(§3) Preparation of peptide solutions. Stock peptide solutions were prepared in 5% DMSO in aq. sucrose (9%). Determination of peptide concentrations was done by quantitative HPLC analysis using known concentrations of internal standards and/or by measuring UV absorption of tryptophane-containing peptide solutions in H2O (λ=280 εTrp: 5690). Serial 2-fold dilutions were made in the above DMSO/aq. sucrose (9%) mixture with concentrations ranging approximately 400-2 μg/ml and aliquots were dispensed in test tubes (100 μl) for the macrodilution test or in microtiter plates (20 μl) for the microdilution assays.
(§4) Inoculum preparation. Overnight cultures of different microorganisms grown in suitable media were diluted 4000 times to an approximate inoculum size of 2.5×10^5 cfu/ml.
(§5) Macrodilution method. Macrodilution methods were performed using procedures similar to those described in the National Committee for Clinical Laboratory Standards. Methods for dilution antimicrobial susceptibility tests for bacteria that grow aerobically. Fourth edition. Approved Standard (1997). Document M7-A4. (NCCLS,Villanova, Pa., 1997). Two ml aliquots of the above inoculum were dispensed to test tubes containing different peptide solutions.
(§6) Microdilution method. Microdilution methods were performed using procedures similar to those described in the National Committee for Clinical Laboratory Standards. Methods for dilution antimicrobial susceptibility tests for bacteria that grow aerobically. Fourth edition. Approved Standard (1997). Document M7-A4.

[4] = tested on: Streptococcus pneumoniae (ATCC 6301); type: cell-based
Procedure: as §2, §3, §4, §5, §6

E. coli JM109(DE3) = type: cell-based, Escherichia coli; settings: JM109
Procedure: as §2, §3, §4, §5, §6

[5] = media a: anti-microbial media-3 (AM-3)
[6] = media b: cation adjusted Meuller Hinton broth (MHBII)
[7] = media c: Brain Heart Infusion (BHI)

CC(C)C[C@H]1NC(=O)[C@H](Cc2c[nH]c3ccccc23)NC(=O)[C@@H](CCCNC(=N)N)NC(=O)[C@H](CCC(N)=O)NC(=O)[C@@H](CCCNC(=N)N)NC(=O)[C@H](Cc2c[nH]c3ccccc23)NC(=O)[C@@H](CC(C)C)NC(=O)[C@H](Cc2c[nH]c3ccccc23)NC1=O [SEQ ID NO:10, RQRWLWLW] (cyclo([dR]Q[dR]W[dL]W[dL]W))
MRSA MIC [1]: 10 µg/mL
S. aureus (MRSA) MIC [1]: 18 µg/mL
MRSA (in vitro activity) [1, 5]: 10
RBC Hemolysis (HD50) (murine red blood cells): 25
VRE MIC [2]: 10 µg/mL
VRE (in vitro activity) ([2]; media a: AM-3): 10
B. cerius MIC [3]: < 1 µg/mL
S. pneum. MIC [4]: 4 µg/mL

CC(C)C[C@H]1NC(=O)[C@H](Cc2c[nH]c3ccccc23)NC(=O)[C@@H](CCCCN)NC(=O)[C@H](CCC(N)=O)NC(=O)[C@@H](CCCCN)NC(=O)[C@H](Cc2c[nH]c3ccccc23)NC(=O)[C@@H](CC(C)C)NC(=O)[C@H](Cc2c[nH]c3ccccc23)NC1=O [SEQ ID NO:11, cyclo-[Gln-D-Lys-(Trp-D-Leu)2-Trp-D-Lys-]] (cyclo([dK]Q[dK]W[dL]W[dL]W))
MRSA MIC [1]: 20 µg/mL
S. aureus (MRSA) MIC [1]: 45 µg/mL
E. coli MIC (E. coli JM109(DE3)): 100 µg/mL
VRE MIC [2]: 20 µg/mL
B. cerius MIC [3]: 7 µg/mL
S. pneum. MIC [4]: 8 µg/mL

CC(C)C[C@H]1NC(=O)[C@H](Cc2c[nH]c3ccccc23)NC(=O)[C@@H](Cc2c[nH]cn2)NC(=O)[C@H](CCCCN)NC(=O)[C@@H](CO)NC(=O)[C@H](Cc2c[nH]c3ccccc23)NC(=O)[C@@H](CC(C)C)NC(=O)[C@H](Cc2c[nH]c3ccccc23)NC1=O [SEQ ID NO:14, cyclo-(D-Ser-Lys-D-His-Trp-D-Leu-Trp-D-Leu-Trp)] (cyclo(K[dH]W[dL]W[dL]W[dS]))
MRSA MIC [1]: 15 µg/mL
S. aureus (MRSA) MIC [1]: 15 µg/mL
MRSA (in vitro activity) [1, 5]: 15
E. coli MIC (E. coli JM109(DE3)): 100 µg/mL
RBC Hemolysis (HD50) (murine red blood cells): 20
VRE MIC [2]: 30 µg/mL
VRE (in vitro activity) ([2]; media a: AM-3): 30
B. cerius MIC [3]: 6 µg/mL

CC(C)C[C@H]1NC(=O)[C@H](Cc2c[nH]c3ccccc23)NC(=O)[C@@H](CCCNC(=N)N)NC(=O)[C@H](CCCNC(=N)N)NC(=O)[C@@H](CCCNC(=N)N)NC(=O)[C@H](Cc2c[nH]c3ccccc23)NC(=O)[C@@H](CC(C)C)NC(=O)[C@H](Cc2c[nH]c3ccccc23)NC1=O [SEQ ID NO:20, RRRWLWLW] (cyclo([dR]R[dR]W[dL]W[dL]W))
S. aureus (MRSA) MIC [1]: 10 µg/mL
E. coli MIC (E. coli JM109(DE3)): 50 µg/mL
Hemolysis HD50 (murine red blood cells; red cells of murine): 35 µg/mL

C[C@H](O)[C@H]1NC(=O)[C@H](CCCNC(=N)N)NC(=O)[C@@H](CO)NC(=O)[C@H](CCC(N)=O)NC(=O)[C@@H](Cc2c[nH]cn2)NC(=O)[C@H](CCCCN)NC1=O [SEQ ID NO:130, [KHQSRT]] (cyclo(K[dH]Q[dS]R[dT]))
MRSA (in vitro activity) [1, 6]: >200
RBC Hemolysis (HD50) (murine red blood cells): >200
VRE (in vitro activity) [2, 7]: >200

CC[C@H](C)[C@@H]1NC(=O)[C@@H](CO)NC(=O)[C@H](CCCCN)NC(=O)[C@@H]([C@H](C)O)NC(=O)[C@H]([C@@H](C)CC)NC(=O)[C@@H](CCCNC(=N)N)NC1=O [SEQ ID NO:132, [KSIRIT]] (cyclo(K[dS]I[dR]I[dT]))
MRSA (in vitro activity) [1, 6]: >200
RBC Hemolysis (HD50) (murine red blood cells): 175
VRE (in vitro activity) [2, 7]: >200

CC(C)C[C@H]1C(=O)N[C@H](Cc2c[nH]c3ccccc23)C(=O)N(C)[C@@H](CC(C)C)C(=O)N[C@H](Cc2c[nH]c3ccccc23)C(=O)N[C@@H](CCCCN)C(=O)N[C@H](CCC(N)=O)C(=O)N[C@@H](CCCNC(=N)N)C(=O)N[C@H](Cc2c[nH]c3ccccc23)C(=O)N1C [SEQ ID NO:140, c[KQRW^MeLW^MeLW]] (cyclo(K[dQ]R[dW][NMeL][dW][NMeL][dW]))
MRSA MIC [1]: 10 µg/mL
VRE MIC [2]: 100 µg/mL
B. cerius MIC [3]: 8 µg/mL
S. pneum. MIC [4]: 10 µg/mL

CC(C)C[C@H]1NC(=O)[C@H](CCCCN)NC(=O)[C@@H](CCCNC(=N)N)NC(=O)[C@H](Cc2c[nH]c3ccccc23)NC(=O)[C@@H](CC(C)C)NC(=O)[C@H](Cc2c[nH]c3ccccc23)NC1=O [SEQ ID NO:141, [RKLWLW]] (cyclo([dR]K[dL]W[dL]W))
MRSA MIC [1]: 25 µg/mL
VRE MIC [2]: 25 µg/mL
B. cerius MIC [3]: 13 µg/mL
S. pneum. MIC [4]: 20 µg/mL

CC(C)C[C@H]1NC(=O)[C@H](CCC(=O)O)NC(=O)[C@@H](CCCCN)NC(=O)[C@H](Cc2c[nH]c3ccccc23)NC(=O)[C@@H](CC(C)C)NC(=O)[C@H](Cc2c[nH]c3ccccc23)NC(=O)[C@@H](CC(C)C)NC(=O)[C@H](Cc2c[nH]c3ccccc23)NC1=O [SEQ ID NO:143, [KELWLWLW]] (cyclo([dK]E[dL]W[dL]W[dL]W))
MRSA MIC [1]: 100 µg/mL
VRE MIC [2]: 100 µg/mL
B. cerius MIC [3]: > 140 µg/mL
S. pneum. MIC [4]: 100 µg/mL

CC(C)C[C@@H](NC(=O)[C@H](Cc1c[nH]c2ccccc12)NC(=O)[C@@H](CC(C)C)NC(=O)[C@H](Cc1c[nH]c2ccccc12)NC(=O)[C@@H](CCCCN)NC(=O)[C@H](CCCCN)NC(=O)[C@@H](CCCCN)NC(=O)[C@@H](N)Cc1c[nH]c2ccccc12)C(=O)O [SEQ ID NO:144, H-WKKKWLWL-OH] (H-W[dK]K[dK]W[dL]W[dL]-OH)
MRSA MIC [1]: 60 µg/mL
VRE MIC [2]: 100 µg/mL
B. cerius MIC [3]: 340 µg/mL
S. pneum. MIC [4]: 100 µg/mL

CC(C)C[C@H]1NC(=O)[C@H](Cc2c[nH]c3ccccc23)NC(=O)[C@@H](CCCCN)NC(=O)[C@H](CCCCN)NC(=O)[C@@H](CCCCN)NC(=O)[C@H](Cc2c[nH]c3ccccc23)NC(=O)[C@@H](CC(C)C)NC(=O)[C@H](Cc2c[nH]c3ccccc23)NC1=O [[KKKWLWLW-HCl] (17), cyclo[-(D-Lys-Lys-D-Lys-(Trp-D-Leu)2-Trp-]] (cyclo([dK]K[dK]W[dL]W[dL]W))
MRSA (in vitro activity) [1, 6]: 6
RBC Hemolysis (HD50) (murine red blood cells): 75
VRE (in vitro activity) [2, 7]: 6

CC(C)C[C@H]1NC(=O)[C@H](Cc2c[nH]c3ccccc23)NC(=O)[C@@H](CCCNC(=N)N)NC(=O)[C@H](CCC(N)=O)NC(=O)[C@@H](CCCCN)NC(=O)[C@H](Cc2c[nH]c3ccccc23)NC(=O)[C@@H](CC(C)C)NC(=O)[C@H](Cc2c[nH]c3ccccc23)NC1=O [[KQRWLWLW-HCl] (8), cyclo-(D-Lys-Gln-D-Arg-Trp-D-Leu-Trp-D-Leu-Trp)] (cyclo([dK]Q[dR]W[dL]W[dL]W))
MRSA (in vitro activity) [1, 6]: 8
RBC Hemolysis (HD50) (murine red blood cells): 70
VRE (in vitro activity) [2, 7]: 8

CC(C)C[C@H]1NC(=O)[C@H](Cc2c[nH]c3ccccc23)NC(=O)[C@@H](Cc2c[nH]cn2)NC(=O)[C@H](Cc2c[nH]cn2)NC(=O)[C@@H](CO)NC(=O)[C@H](Cc2c[nH]c3ccccc23)NC(=O)[C@@H](CC(C)C)NC(=O)[C@H](Cc2c[nH]c3ccccc23)NC1=O [[SHHWLWLW-HCl] (15), SHHWLWLW] (cyclo([dS]H[dH]W[dL]W[dL]W))
MRSA (in vitro activity) [1, 6]: 6
RBC Hemolysis (HD50) (murine red blood cells): 40
VRE (in vitro activity) [2, 7]: 6

[KSOLWLWL] [SEQ ID NO:63]
MRSA (in vitro activity) [1, 6]: 12
RBC Hemolysis (HD50) (murine red blood cells; Table 9): 150
VRE (in vitro activity) [2, 7]: 25
